Literature values as cited in publication PMC6376154 (International Journal for Parasitology: Drugs and Drug …, 2019).
Where two headings read alike, the source gives them in different places.

Tested on: P. falciparum 3D7 asexual blood stage
Conditions: cited from earlier work
[1] = MMV Malaria Box data sheet, ref MMV data sheets
[2] = MMV Malaria Box data sheet, ref MMV data sheets, read-out: EC50_nM
[3] = source GNF, ref ChEMBL_NTD, read-out: CHEMBL EC50
[4] = MMV Malaria Box data sheet (supplement mmc2.xls), ref MMV data sheet, read-out: EC50_nM
[5] = value(s) per source (GSK, GNF, StJude), separated by semicolon, ref ChEMBL-NTD, read-out: CHEMBL EC50
[6] = ChEMBL-NTD value per source (GNF, GSK, StJude), several values in a cell follow the order of the sources, read-out: CHEMBL EC50
[7] = MMV Malaria Box sheet, ref MMV data sheets
[8] = MMV Malaria Box sheet, ref MMV data sheets, read-out: EC50_nM
[9] = MMV Malaria Box data sheet (supplement mmc2.xls), ref MMV data sheet
[10] = source GSK, ref ChEMBL_NTD, read-out: CHEMBL EC50

Cc1cc(C)c2c(c1)OCN(Cc1ccccc1Cl)C2 [MMV006558]
percent_inh @ 5 uM [1]: 98%
EC50 [2]: 268 nM
EC50 [3]: 192 nM

Clc1ccc2[nH]c3c(NCCCN4CCOCC4)ncnc3c2c1 [MMV006587]
EC50 [4]: 700 nM
EC50 [5]: 109 nM

CCOC(=O)C1=CN(C)C=C(C(=O)OCC)C1c1cc(Br)c(OCC)c(OC)c1 [MMV006656]
EC50 [6]: 913 nM

CN(C)CCNc1cc(-c2ccccc2)nc2ccccc12 [MMV006704]
percent_inh @ 2 uM [7]: 92%
EC50 [8]: 4000 nM
EC50 [3]: 692 nM

Cc1cc(N2CCN(C3CCCC3)CC2)n2c(nc3ccccc32)c1C#N [MMV006706]
EC50 [4]: 683 nM
EC50 [5]: 743 nM

Cc1cc(=O)oc2c1ccc1oc(C(=O)c3ccccc3)c(C)c12 [MMV006753]
percent_inh @ 5 uM [7]: 94%
EC50 [3]: 441 nM

CCOc1c(Br)cc(C2C(C(=O)OC)=CN(C)C=C2C(=O)OC)cc1OC [MMV006764]
EC50 [6]: 292 nM

COc1cc2cc(C(=O)Nc3ccccc3)c(N)nc2cc1OC [MMV006767]
percent_inh @ 5 uM [9]: 99%

CC(C)CCNCC(O)Cn1c2ccccc2c2ccccc21 (centres unmarked) [MMV006787]
percent_inh @ 5 uM [7]: 97%
EC50 [8]: 473 nM
EC50 [3]: 201 nM

CCCCc1c(C)nc2c(OC)cccc2c1O [MMV006820]
percent_inh @ 2 uM [7]: 92%
EC50 [8]: 4000 nM
EC50 [3]: 1690 nM

COc1ccc(Nc2cc(C)nc(NCc3ccccc3)n2)cc1 [MMV006825]
EC50 [6]: 151 nM

c1ccc2cc3c(Nc4ccc(N5CCOCC5)cc4)ccnc3cc2c1 [MMV006861]
percent_inh @ 5 uM [1]: 97%
EC50 [2]: 251 nM
EC50 [3]: 672 nM

CCOC(=O)c1cnc2ccc(Cl)cc2c1NCCCN(C)C [MMV006882]
percent_inh @ 5 uM [7]: 98%
EC50 [8]: 1190 nM
EC50 [3]: 826 nM

C=CCc1c(C)nc2ccccc2c1O [MMV006913]
percent_inh @ 5 uM [9]: 85%
EC50 [4]: 1290 nM
EC50 [5]: 707 nM

Cc1ccc(-c2cc3nc4c(c(O)n3n2)CCCC4)cc1 [MMV006937]
percent_inh @ 5 uM [1]: 73%
EC50 [2]: 396 nM
EC50 [3]: 1600 nM

O=C(Nc1ccc(-c2nc3cc(NC(=O)c4ccc(Cl)cc4)ccc3[nH]2)cc1)c1ccc(Cl)cc1 [MMV006962]
% inh. At 1.25 uM (1.25 uM, solubility issue at 5 uM): Solubility issue at 5 uM. % inh. At 1.25 uM is 48
EC50 [6]: 993 nM

CCOc1ccc2nc(C)cc(Nc3ccc(N(C)C)cc3)c2c1 [MMV007020]
EC50 [6]: 344 nM

Cc1ccc2c(C)nc(Nc3nc(C)cc(-c4ccccc4)n3)nc2c1 [MMV007041]
EC50 [6]: 975 nM

CCOc1ccc(CN2CCN(CC(O)COc3ccc(OCC(O)CN4CCN(Cc5ccc(OCC)cc5)CC4)cc3)CC2)cc1 (centres unmarked) [MMV007092]
EC50 [6]: 1370 nM

c1ccc(C2=Nc3ccccc3N=C(c3ccccc3)c3ccccc32)cc1 [MMV007113]
EC50 [6]: 678 nM

CCOC(=O)c1cnc2ccc(CC)cc2c1O [MMV007116]
EC50 [2]: 351 nM
EC50 [3]: 716 nM

OC1=C2C(=Nc3ccccc3SC2c2ccc(Br)cc2)c2ccccc21 (centres unmarked) [MMV007127]
percent_inh @ 5 uM [7]: 97%
EC50 [8]: 567 nM
EC50 [3]: 337 nM

Cc1ccc(N2C3c4ccccc4N(S(=O)(=O)c4ccc(C)cc4)C2c2ccccc2N3S(=O)(=O)c2ccc(C)cc2)cc1 [MMV007160]
percent_inh @ 5 uM [1]: 97%
EC50 [2]: 24.8 nM
EC50 [3]: 720 nM

Cc1cc(Nc2ccc(OCc3ccccc3)cc2)nc2cc(O)ccc12 [MMV007181]
EC50 [6]: 73.6 nM

COc1ccccc1N1C(=N)SC(=Cc2ccc(OCc3ccccc3F)cc2)C1=O [MMV007199]
percent_inh @ 5 uM [7]: 95%
EC50 [8]: 478 nM

COc1ccc(OC)c(C2C3=C(CC(C)(C)CC3=O)N(c3ccc(Cl)c(Cl)c3)C3=C2C(=O)CC(C)(C)C3)c1 [MMV007208]
percent_inh @ 5 uM [7]: 90%
EC50 [8]: 912 nM
EC50 [3]: 430 nM

Cc1cccc(N2C(=O)C3C(C2=O)C2(c4ccccc4)C(=O)C3(c3ccccc3)C(c3ccc4c(c3)OCO4)=C2c2ccc3c(c2)OCO3)c1 (centres unmarked) [MMV007228]
EC50 [6]: 1070 nM

Cc1ccc(F)cc1NC(=O)c1cc(Cl)ccc1Nc1ccccc1 [MMV007275]
EC50 [6]: 191 nM

CCOc1ccc(Nc2ccnc3cc(Cl)ccc23)cc1 [MMV007285]
EC50 [6]: 956 nM

CCc1ccc(Nc2cc(C)nc3nc(C)nn23)cc1 [MMV007374]
percent_inh @ 2 uM [9]: 81%
EC50 [4]: 4000 nM
EC50 [5]: 574 nM

COc1ccc(-c2nc3cc(Cc4ccc5[nH]c(-c6ccc(OC)cc6)nc5c4)ccc3[nH]2)cc1 [MMV007384]
percent_inh @ 5 uM [1]: 98%
EC50 [2]: 176 nM
EC50 [3]: 234 nM

Cc1ccccc1OCCSc1nc2ccc(NC(=O)c3cccs3)cc2s1 [MMV007396]
EC50 [6]: 497 nM

O=C(NCc1ccco1)C1CCN(S(=O)(=O)c2ccc(Br)cc2)CC1 [MMV007430]
percent_inh @ 5 uM [9]: 93%
EC50 [4]: 939 nM
EC50 [5]: 362 nM

COc1cc2c3cc1Oc1c(OC)c(OC)cc4c1C(Cc1ccc(O)c(c1)Oc1ccc(cc1)CC3N(C)CC2)N(C)CC4 (centres unmarked) [MMV007474]
EC50 [6]: 997 nM

COc1ccc(CCNC(=O)c2cc(S(=O)(=O)N3CC(C)CC(C)C3)ccc2Sc2ccc(F)cc2)cc1OC (centres unmarked) [MMV007557]
percent_inh @ 5 uM [7]: 97%
EC50 [8]: 632 nM
EC50 [3]: 1050 nM

Cc1ccc(Cn2c(N3CCC(C(=O)NCc4cccs4)CC3)nc3ccccc32)cc1 [MMV007564]
percent_inh @ 5 uM [1]: 73%
EC50 [2]: 947 nM
EC50 [3]: 529 nM
EC50 [10]: 748 nM

Cc1ccc(CSCc2ccc(C(=O)NC3CC3)o2)cc1 [MMV007571]
percent_inh @ 5 uM [9]: 97%
EC50 [4]: 635 nM
EC50 [5]: 418 nM

O=C(Nc1ccc(C23CC4CC(CC(c5ccccc5)(C4)C2)C3)cc1)c1cccs1 [MMV007574]
percent_inh @ 5 uM [7]: 96%
EC50 [8]: 826 nM
EC50 [3]: 645 nM

Cc1ccccc1OCCSc1nc2ccc(NC(=O)c3ccccc3)cc2s1 [MMV007577]
percent_inh @ 5 uM [7]: 93%
EC50 [8]: 1120 nM
EC50 [3]: 9760 nM

COc1ccc(C(=O)C(CCC(CNC(C)(C)C)C(=O)c2ccc(OC)cc2)CNC(C)(C)C)cc1 (centres unmarked) [MMV007591]
EC50 [6]: 1120 nM

CC(=O)NCCc1nc2ccccc2n1Cc1ccc(C(C)C)cc1 [MMV007617]
percent_inh @ 5 uM [9]: 97%
EC50 [4]: 1790 nM
EC50 [5]: 764 nM

Cc1ccc(C)c(-c2csc(Nc3ccc(C)c(C)c3)n2)c1 [MMV007654]
EC50 [6]: 493 nM

CCCCCCOC(=O)C1=C(C)NC(=O)NC1c1ccccc1F (centres unmarked) [MMV007686]
percent_inh @ 5 uM [1]: 95%
EC50 [2]: 106 nM
EC50 [3]: 6760 nM

COc1ccc(C(C)=O)cc1N1C(=O)C2C(C1=O)C1(c3ccccc3)C(=O)C2(c2ccccc2)C(c2ccc(C)cc2)=C1c1ccc(C)cc1 (centres unmarked) [MMV007695]
percent_inh @ 5 uM [1]: 96%
EC50 [2]: 179 nM
EC50 [3]: 2460 nM

CCCCc1c(CCC)c(=N)c2ccccc2n1C [MMV007764]
EC50 [6]: 311 nM

CCOc1ccccc1NC(=O)CN1CCN(C(=O)c2ccco2)CC1 [MMV007791]
percent_inh @ 5 uM [7]: 83%
EC50 [3]: 5460 nM

COc1nc(Nc2ccc(C(C)C)cc2)nc(OC)n1 [MMV007808]
percent_inh @ 5 uM [9]: 88%
EC50 [4]: 1140 nM
EC50 [5]: 677 nM

COc1ccc2c(c1)OC(O)(C(F)(F)C(F)(F)F)CC2=O (centres unmarked) [MMV007839]
EC50 [2]: 283 nM
EC50 [3]: 442 nM

COc1ccc2nc(C)cc(Nc3ccc(Cl)cc3)c2c1 [MMV007875]
percent_inh @ 2 uM [7]: 95%
EC50 [8]: 2000 nM
EC50 [3]: 1230 nM
EC50 [10]: 946 nM

CCCCN(CCCC)S(=O)(=O)c1ccc(NC(=O)c2ccco2)cc1 [MMV007881]
percent_inh @ 5 uM [7]: 78%
EC50 [3]: 1420 nM

CCCCOc1ccc(C(=O)Nc2cc(C)on2)cc1 [MMV007906]
percent_inh @ 5 uM [9]: 73%
EC50 [5]: 3160 nM

Cc1ccc(Nc2nc(-c3ccccn3)cs2)cc1 [MMV007907]
percent_inh @ 5 uM [1]: 79%
EC50 [2]: 350 nM
EC50 [3]: 407 nM

O=c1nc(C=Cc2ccc(Cl)cc2)oc2ccccc12 [MMV007977]
percent_inh @ 5 uM [9]: 76%
EC50 [4]: 995 nM

CCOc1ccc(CCNC(=O)c2cccs2)cc1OCC [MMV007978]
percent_inh @ 5 uM [7]: 95%
EC50 [3]: 890 nM

CN1CCN(c2c3c(c(C#N)c4nc5ccccc5n24)CCC3)CC1 [MMV008127]
percent_inh @ 2 uM [9]: 42%
EC50 [4]: 4000 nM
EC50 [5]: 1180 nM

O=C(O)C1Cc2c([nH]c3ccccc23)C(c2ccc(Cl)cc2Cl)N1 (centres unmarked) [MMV008138]
EC50 [2]: 350 nM
EC50 [3]: 1020 nM
EC50 [10]: 954 nM

Cc1c(C)n(Cc2ccc(F)cc2)c2ccc(C(=O)NCc3ccco3)cc12 [MMV008149]
percent_inh @ 5 uM [9]: 52%
EC50 [5]: 78.2 nM

CN1C=C(c2ccc3ccccc3n2)C(c2c[nH]c3ccccc23)c2ccccc21 (centres unmarked) [MMV008160]
EC50 [6]: 1140 nM

COc1cc(OC)cc(N2C(=O)N(Cc3ccc(C(C)(C)C)cc3)c3ccccc3S2(=O)=O)c1 [MMV008173]
percent_inh @ 5 uM [7]: 97%
EC50 [8]: 1430 nM
EC50 [3]: 3750 nM

Oc1c2c(nc3cc(-c4ccccc4)nn13)CCCC2 [MMV008270]
percent_inh @ 5 uM [9]: 77%
EC50 [5]: 1930 nM

CCOC(=O)c1cnc2c(C)cc(C)cc2c1Nc1ccc(OC)c(OC)c1 [MMV008294]
percent_inh @ 5 uM [1]: 96%
EC50 [2]: 232 nM
EC50 [3]: 1780 nM

CCCc1c(CC)c(=N)c2ccccc2n1C [MMV008416]
percent_inh @ 5 uM [1]: 69%
EC50 [2]: 242 nM
EC50 [3]: 762 nM

COc1ccc(C2C(C(=O)Nc3cccc(OC)c3)c3ccccc3C(=O)N2C2CCCCC2)cc1 (centres unmarked) [MMV008455]
percent_inh @ 5 uM [7]: 97%
EC50 [8]: 1180 nM
EC50 [3]: 1110 nM

CCN1CCN(c2c(C(=O)c3ccccc3)cnc3cc(OC)c(OC)cc23)CC1 [MMV008474]
percent_inh @ 5 uM [7]: 59%
EC50 [3]: 3020 nM
